Consider two compounds from patent publication US20180161291A1, “EXTENDED RELEASE UREA COMPOSITIONS” (Kato Pharmaceuticals, Inc., priority 2015, published 2018).

Series [1] has as its system non sighted patients with optic nerve damage caused by trauma and/or glaucoma. Kind of series: Treatment of neuropathies, double masked placebo controlled dose escalation study. The class given is in vivo, human. As to the method:
In accordance with the present disclosure, urea, thiourea, guanidine and possibly the other compounds of General Formula I above are effective to treat neuropathies 5 (e.g., disorders or damage to nerves). In this example, 33 non sighted patients with optic nerve damage caused by trauma and/or glaucoma, with visual acuity of light perception or no light perception were administered a urea-containing formulation, as disclosed herein. The study was a double masked placebo controlled, randomized, dose escalation study conducted with 33 human patients with optic nerve damage. Patients were randomized into 5 groups, Group 1 of 5 patients. Group 2 of 4 patients, Group 3 of 8 patients, Group 4 of 8 patients and Group 5 of 8 patients. Each patient received a single intravitreal injection of 50 UI of an aqueous treatment solution, as follows:
In Six patients the vision improved from No light perception to light perception, in 2 patients the vision improved from light perception to count fingers at 12 inches, in 2 patients the vision improved from no light perception to 20 20/400 and 20/800 vision and in 2 patients the vision improved from light perception to 20/600 and 20/800 vision. No patients in the placebo group reported any improvement in best corrected visual acuity as measured by ETDRS charts.

Series [2] can be described thus: Storage stability of lyophilized urea formulation. The class given is physicochemical. The settings on record: storage at room temperature. As to the method: (§1) Formulation: Sterile lyophilized Urea, USP-NF in buffered isotonic saline for intravitreal injections. Injectable: Reconstituted with 300 μL sterile water for injection. Dosage form: 100 μL dose contains 18 mg Urea, USP-NF (18% w/v) in glass vial. Storage: room temperature. Stability: stable >24 mo for lyophilized form. […] PVD rate: 25% targeted efficacy.

The subject of series [3] is non-diabetic patients with symptomatic VMA. The series is described as follows: Ex-U.S. Phase Ib study: induction of PVD by multiple intravitreal injections of urea. The class given is in vivo, human. To be noted: preliminary. The method, then: (§2) A study was conducted to examine effect of multiple intravitreal injections of small molecule formulation of urea on induction of posterior vitreous detachment (PVD).
as §1
(§3) Ex-U.S. study design: 3:1 randomized, controlled, Phase Ib, POC & safety study. Patient population: non-diabetic patients with symptomatic VMA. Treatment arm: 20 patients. Control arm: 5 patients. Treatment: high dose arm (Day 0: 100 μL 36% w/v injection; Day 30: 100 μL 36% w/v injection for all unresolved patients); low dose arm (Day 0: 100 μL 18% w/v injection; Day 30: 100 μL 18% w/v injection for all unresolved patients). Follow-up: days 0, 2, 8, 15, 30, 45, 60 and 90.

Series [4] relates to patients with nonproliferative diabetic retinopathy. Kind of series: Treatment of diabetic retinopathy. The class given is in vivo, human. The settings on record: within 2-4 weeks after single intravitreal injection of 3% urea, 0.9% sodium chloride; 69 patients. The text has this:
Sixty-nine patients with nonproliferative diabetic retinopathy were each administered a single intravitreal injection of 50 UI of a urea formulation containing 3% urea, 0.9% sodium chloride, and sterile water for injection.
The vitreous liquefaction and vitreous collapse in non-proliferative diabetic retinopathy patients would inhibit the growth and proliferation of the blood vessels, and thus inhibit the progression of diabetic retinopathy. All 69 (of the) patients were followed for six months following the procedure.

In series [5] the test system is human patients with diabetes-related nonclearing vitreous hemorrhage. The series is described as follows: Treatment of vitreous hemorrhage. To be noted: within 2 to 4 weeks after single intravitreal injection of 6% urea, 0.9% sodium chloride; seven patients. The class given is in vivo. The method, then:
The formulations and treatments disclosed herein are also effective to treat vitreous hemorrhage. In this example, seven human patients were treated for diabetes-related nonclearing vitreous hemorrhage. Each patient received a single intravitreal injection of 1001l of a formulation containing urea. The formulation used in this example contained 6% urea, 0.9% sodium chloride, and sterile water for injection (qs 100%).

The test system of series [6] is non-diabetic patients with symptomatic VMA. Kind of series: Multiple intravitreal injections of urea: overall (pooled) results. The class given is in vivo, human. The method, then:
as §2, §1
(§4) U.S. study design: 2:1 randomized, Phase Ib, dose ranging & safety study. Patient population: 30 non-diabetic patients with symptomatic VMA. Treatment: high dose arm (Day 0: 100 μL 18% w/v injection; Day 30: 100 μL 18% w/v injection for all unresolved patients); low dose arm (Day 0: 100 μL 9% w/v injection; Day 30: 100 μL 9% w/v injection for all unresolved patients). Follow-up: days 0, 2, 8, 15, 30, 60, 90 and 180.
as §3
FIGS. 10 and 11 show the preliminary US and ex-US results, respectively. For the US study, 4 of 10 patients in high-dose group met primary endpoint, 1 of 7 patients in low-dose group met primary endpoint. For the ex-US study, 5 of 11 patients in high-dose group met primary endpoint, 3 of 6 patients in low-dose group met primary endpoint.

In series [7] the test system is patient with stage 3 idiopathic macular hole. Kind of series: Treatment of idiopathic macular hole: intravitreal urea followed by expandable gas. The settings on record: for visual acuity: baseline 20/400; for size of the macular hole: baseline 450 μm. The class given is in vivo, human. As to the method:
The macular defect was classified as a stage 3 macular hole, and the patient's visual acuity was recorded at 20/400 at a baseline time point prior to urea treatment. […] Seven days after the intravitreal urea injection the patient was administered an intravitreal injection of 0.3 ml of expandable gas (C3 F8).
One week after administration of the gas, the size of the macular hole had decreased from 450 μm to a smaller size of 200 μm and the patient's vision had improved from a baseline visual acuity of 20/400 to 20/80. Two weeks post treatment the size of the macular hole had decreased from 450 μm to a smaller size of 90 μm and the patient's vision had improved from a baseline visual Acuity of 20/400 to 20170. Four weeks post treatment the size of the macular hole had decreased from 450 μm to a smaller size of 60 μm and the patient's vision had improved from a baseline visual acuity of 20/400 to 20/60.

The conditions of series [8]: cited from earlier work.
Series [9] concerns patients with long standing optic nerve damage related to optic nerve tumors. The series is described as follows: Treatment of optic nerve damage related to optic nerve tumors. The class given is in vivo, human. As to the method:
In another study, three patients with long standing (6 months or longer) optic nerve damage related to optic nerve tumors were treated with a single intravitreal injection of 100 μl of a 6% urea containing formulation. All three patient treated reported a significant improvement in visual acuity after treatment. The patients' visual acuity improved from an average of Count Fingers at 12 inches to 20/200.

Series [10] concerns non-diabetic patients with symptomatic VMA. The series is described as follows: U.S. Phase Ib study: induction of PVD by multiple intravitreal injections of urea. The settings on record: preliminary. The class given is in vivo, human. The method, then:
as §2, §1, §4

Series [11] has as its system human patients with single or multiple retinal tears. The series is described as follows: Treatment of retinal tears: intravitreal urea 3 days before pneumatic Retinopexy. The class given is in vivo. The method, then: All patients received pneumatic Retinopexy treatment 3 days after intravitreal injection of 1.5 mg of urea in 50 μl of aqueous solution prepared according to the formulation set forth in Table II above. […] Within 3-7 days after urea injection, 11/12 patients had developed PVD, only 1/12 patients had not developed PVD. Within 90 days of the urea injection that one patient also developed PVD.
Within 3 days of treatment 9/12 patients had complete retinal reattachment and macular attachment, and within 7 days all 12 patients had complete retinal reattachment and macular attachment. […]
(Tornambe, P. E. et. al. Opthalmology, 1989; 96: 772-783).

For series [12], the system named is human patients requiring pars plana vitrectomy. Kind of series: Treatment as adjunct to vitrectomy. The class given is in vivo. As to the method:
In this example, five human patients requiring pars plana vitrectomy for various indications were treated one week prior to vitrectomy with a single intravitreal injection of 100 μl of a urea in aqueous solution. The formulation contained 6% urea, 0.9% sodium chloride, and sterile water for injection (qs 100%). All patients underwent routine vitrectomies 8 to 10 days after the urea injection. The minimum waiting time between the urea injection and the vitrectomy procedure is about 1 day to 3 days.
No vitrectomy cutter was used.

Series [13] concerns human patients with retinitis pigmentosa. Kind of series: Treatment of retinitis pigmentosa, double masked placebo controlled dose escalation study. The class given is in vivo. As to the method:
A double masked placebo controlled, randomized, dose escalation study was done in 32 human patients with retinitis pigmentosa. All patients were treated with a single intravitreal injection of 50 μl of a urea-containing formulation. Three groups of patients received different concentrations of urea. One group received a formulation containing 1.5% urea, 0.9% sodium chloride, and sterile water for injection. A second group received an identical formulation except the formulation contained 3.0% urea. A third group received an identical formulation except the formulation contained 6.0% urea. A placebo group received 50 μl of 0.9% sodium chloride.
Forty-seven percent of the patient reported an increase of at least 3 lines of best corrected visual acuity measured by ETDRS charts, whereas, only 14% of the placebo patients reported an increase of at least 3 lines of best corrected visual acuity measured by ETDRS charts.
There was no dramatic increase in the visual field of the placebo control patients.

In series [14] the test system is vitreous and retina of injected eyes. To be noted: cited from earlier work.
The mark [15] stands for this setting: one week after administration of the gas.

Bounds are passed on as bounds.

For `NC(N)=O` [urea], the “patients whose vision improved from No light perception to light perception” value in series [1] (in vivo) is recorded as “Six”. Moreover, the “patients whose vision improved from light perception to 20/600 and 20/800 vision” value in series [1] (in vivo) stood at 2 patients. The “patients whose vision improved from light perception to count fingers at 12 inches” value in series [1] (in vivo) is 2 patients. Also, the “patients whose vision improved from no light perception to 20/400 and 20/800 vision” value in series [1] (in vivo) turned out to be 2 patients. Further, the “patients with an increase of best corrected visual acuity (ETDRS charts)” value in [1] (single intravitreal injection of 0.2%, 1.5%, 3.0% or 6.0% urea, no improvement in placebo group) is listed as “Forty-three”. The “stability of lyophilized form” value in series [2] is greater than 24 mo. Besides, the “patients who met primary endpoint” value was 5 of 11 in series [3] (high-dose group, 100 μL 36% w/v); 3 of 6 in series [3] (low-dose group, 100 μL 18% w/v); 4 of 10 in series [10] (high-dose group, 100 μL 18% w/v); 1 of 7 in series [10] (low-dose group, 100 μL 9% w/v). The “patients with complete vitreous liquefaction and collapse” value in series [4] came out at 69 patients. In addition, the “patients with clearance of vitreous hemorrhage sufficient to treat the retina with photocoagulation” value in [5] was “All seven”. The figures for the efficacy in [6] (after a second injection) and in series [6] (with one injection) were 40% and 30%, respectively. Besides, the “% resolution of VMA” value in series [6] (non-ERM) worked out at 44%. Besides, the “safety: drug related adverse effects” value in [6] (up to 4 injections) is recorded as “no drug related adverse effects”. Further, the “adverse effects of the intravitreal injection, ophthalmoscopic and biomicroscopic examination” value in [7] (1.5 mg urea, Table III formulation) is “no adverse effects”; in series [11] (1.5 mg urea in 50 μl, Table II formulation, 12 patients) it was “no adverse effects”. Moreover, the visual acuity in series [7] (four weeks post treatment) is given as 20/60; in [7] (setting [15]) it was 20/80. Further, the “size of the macular hole” value in [7] (four weeks post treatment) is recorded as 60 μm; in series [7] (setting [15]), 200 μm; in [7] (two weeks post treatment) it was 90 μm. The “time to complete Posterior Vitreous Detachment (PVD)” value in series [7] (single intravitreal injection 1.5 mg urea, Table III formulation, one patient) is no more than 7 days. Besides, the pH of solution in series [8] (10% water solution) is given as 7.2. Besides, in [8] (stored under dry conditions), the “stability of the solid” value is on record as “stable at room temperature”. In addition, the “average visual acuity after treatment” value in [9] (from an average of Count Fingers at 12 inches) was 20/200. Besides, in [9] (single intravitreal 100 μl of 6% urea, three patients), the “patients reporting a significant improvement in visual acuity after treatment” value was “All three”. Moreover, the “patients with improvement of more than 2 lines of visual acuity (11 letters)” value in series [11] (6 months post Retinopexy) and in series [11] (time not printed in the sentence (1 month post Retinopexy by context)) was 64% throughout. The “occurrence of new retinal tears with associated retinal detachment” value in [11] (follow up 90 days) is given as “none”. For the same compound, in series [11] (within 3-7 days after urea injection), the “patients who developed PVD” value is given as 11/12. Further, the “patients with complete retinal reattachment and macular attachment” value is on record as 9/12 in [11] (within 3 days of treatment) and 12 patients in series [11] (within 7 days). In addition, in series [12] (6% urea, 100 μl intravitreal one week prior to vitrectomy), the “decrease in surgical time relative to patients who did not receive urea” value came to 70%. In [12] (by one week after single intravitreal 100 μl of 6% urea, 0.9% sodium chloride, five patients), the “vitreous status at the time of vitrectomy” value was “complete vitreous liquefaction and collapse”. In series [13] (single intravitreal 50 μl of 1.5%, 3.0% or 6.0% urea, placebo 14%), the “patients with an increase of at least 3 lines of best corrected visual acuity (ETDRS charts)” value was “Forty-seven”. The “average improvement in the patient's visual field” value in series [13] (urea-treated patients) came out at 10 degrees.
For the compound Collagenase, in series [14] (dispase: 15 minutes after injection), the “reported adverse effect on the injected eye” value is on record as “disrupt the outer layers of the retina”. In addition, the “reported effect on the vitreous” value in series [14] (in vivo) is “liquefy the vitreous”.
